The record followed here is patent US20230123334A1, “AMINO LIPID COMPOUND, PREPARATION METHOD THEREFOR, AND APPLICATION THEREOF” (SHENZHEN SHENXIN BIOTECHNOLOGY CO., LTD., priority 2020, published 2023).

The assay has as its system HEK293 cells. Kind of assay: Preliminary screening as DNA vectors, GFP transfection of HEK293 cells. Type of assay: cell-based. Conditions: amino lipid/DOPE liposome with 75 ng plasmid DNA (psin-EGFP-IRES-Puro); number of GFP-expressing cells divided by total nuclei (Hoechst). The method, then: Cell line: HEK293 cells (ATCC CRL-1573™)
Medium: DMEM supplemented with 10% fetal bovine serum (Invitrogen)
Mode of screening: cell transfection on 96-well plates
Detection (readout): percentage of the number of GFP fluorescent cells relative to the total number of cells (the total number of cells was measured using nucleus dye Hoechst—see FIG. 2). Lipofectamine2000 (Invitrogen) was used as positive control, according to the manufacturer's instructions.
Method: an 8-channel pipette was used for sample addition. The contents shown were for a single well of a 96-well flat plate.
1. The compound (0.01 mmol) prepared in Example 1 was dissolved in 1 mL of anhydrous ethanol. After ultrasonically dissolved, 10 μL of the resultant amino lipid solution in ethanol was taken and mixed with 5 μL of DOPE solution in ethanol (0.01 m), and then to the obtained mixture was added 35 μL of 0.2M sodium acetate buffer (pH 5.6), and 50 μL of liposome solution was prepared by vortex at a constant rotating speed for 30 s. 4 μL was taken from the 50 μL liposome solution and added to 46 μL of 0.02M sodium acetate buffer (pH 5.6), and the final liposome solution was formed by vortex at a constant rotating speed for 30 s. 5 μL was taken from the final liposome solution and mixed with 75 ng plasmid DNA (psin-EGFP-IRES-Puro, Clontech) dissolved in 5 μL of 0.02 M sodium acetate buffer, and was allowed to stay at room temperature for 30 min to form a lipid/DNA transfection complex.
2. 10 μL of the lipid/DNA transfection complex was incubated at room temperature for 30 min, followed by addition of 90 μL of fresh resuspended cells (3-5×10^4 cells) and mixing with a pipette. 100 μL of cells+lipid/DNA complex was transferred to separate wells of a 96-well culture plate immediately, and placed in an incubator containing 5% CO2 at 37° C.
3. Hoechst33258 (Invitrogen) was added at a final concentration of 0.2 μg/mL to the cells 20 to 24 hours after initial cell transfection, and cultured in darkness at 37° C. for 15 min. Afterwards, the cells were washed once with a PBS solution, and then added with medium for culture for 20 to 24 h.
4. The cells were placed in a high-throughput confocal microscope (Molecular Devices ImageXpress), and four visual fields of the image of the cells were captured for each well, and images at three laser wavelengths were captured for each sample: bright field images of cells (FIG. 2(a) and FIG. 2(b)), Hoechst-staining images showing total nuclei (FIG. 2(c) and FIG. 2(d)) and GFP images showing success in transfection with the plasmid DNA and the expression of GFP (FIG. 2(e) and FIG. 2(f)). MetaXpress software was used to separately count the cells in the Hoechst-staining images and GFP images, and then the number of cells expressing GFP was divided by the total number of nuclei to give the absolute cell transfection efficiency. The absolute transfection efficiency was calculated as follows: […]

In the case of `CCCCCCCCCCCCCCCCSc1nc(NCCCN2CCN(C)CC2)nc(SCCCCCC)n1` [S6S16 D9], the “Absolute DNA transfection efficiency in HEK293 cells” value (“Absolute DNA transfection efficiency” below) is given as 3.9%.
Consider `CCCCCCCCCCCCCCCCSc1nc(NCC2CCN(C)CC2)nc(SCCCCCC)n1` [S6S16 D10], for which the “Absolute DNA transfection efficiency” value amounted to 37.6%.
As for `CCCCCCCCCCCCCCCCCCSc1nc(NCCN(C)C)nc(SCCCCCC)n1` [S6S18 D1], the “Absolute DNA transfection efficiency” value amounted to 9.8%.
`CCCCCCCCCCCCCCCCCCSc1nc(NCCN2CCOCC2)nc(SCCCCCC)n1` [S6S18 D2]: the “Absolute DNA transfection efficiency” value is listed as 8.1%.
On to `CCCCCCCCCCCCCCCCCCSc1nc(NCCN2CCCC2)nc(SCCCCCC)n1` [S6S18 D3], for which the “Absolute DNA transfection efficiency” value came to 13.8%.
With `CCCCCCCCCCCCCCCCCCSc1nc(NCCN2CCCCC2)nc(SCCCCCC)n1` [S6S18 D4], the “Absolute DNA transfection efficiency” value worked out at 10.4%.
As for `CCCCCCCCCCCCCCCCCCSc1nc(NCCN2CCN(C)CC2)nc(SCCCCCC)n1` [S6S18 D5], the “Absolute DNA transfection efficiency” value worked out at 15.1%.
As for `CCCCCCCCCCCCCCCCCCSc1nc(NCCCN(C)C)nc(SCCCCCC)n1` [S6S18 D6], the “Absolute DNA transfection efficiency” value was 0.0%.
Regarding `CCCCCCCCCCCCCCCCCCSc1nc(NCCN(CC)CC)nc(SCCCCCC)n1` [S6S18 D7], the “Absolute DNA transfection efficiency” value is given as 6.4%.
For `CCCCCCCCCCCCCCCCCCSc1nc(NCCCN2CCOCC2)nc(SCCCCCC)n1` [S6S18 D8], the “Absolute DNA transfection efficiency” value amounted to 15.9%.
Take `CCCCCCCCCCCCCCCCCCSc1nc(NCCCN2CCN(C)CC2)nc(SCCCCCC)n1` [S6S18 D9]: the “Absolute DNA transfection efficiency” value is recorded as 8.7%.
In the case of `CCCCCCCCCCCCCCCCCCSc1nc(NCC2CCN(C)CC2)nc(SCCCCCC)n1` [S6S18 D10], the “Absolute DNA transfection efficiency” value was found to be 34.7%.
As for `CCCCCCCCCCCCN(CCCCCCCCCCCC)c1nc(NCCN(C)C)nc(SCCCCCC)n1` [S6^2N12 D1], the “Absolute DNA transfection efficiency” value is reported as 0.4%.
Turning to `CCCCCCCCCCCCN(CCCCCCCCCCCC)c1nc(NCCN2CCOCC2)nc(SCCCCCC)n1` [S6^2N12 D2], the “Absolute DNA transfection efficiency” value worked out at 0.0%.
Consider `CCCCCCCCCCCCN(CCCCCCCCCCCC)c1nc(NCCN2CCCC2)nc(SCCCCCC)n1` [S6^2N12 D3], for which the “Absolute DNA transfection efficiency” value is given as 0.1%.
`CCCCCCCCCCCCN(CCCCCCCCCCCC)c1nc(NCCN2CCCCC2)nc(SCCCCCC)n1` [S6^2N12 D4]: the “Absolute DNA transfection efficiency” value is 0.1%.
To `CCCCCCCCCCCCN(CCCCCCCCCCCC)c1nc(NCCN2CCN(C)CC2)nc(SCCCCCC)n1` [S6^2N12 D5] belongs 0.0%; to `CCCCCCCCCCCCN(CCCCCCCCCCCC)c1nc(NCCCN(C)C)nc(SCCCCCC)n1` [S6^2N12 D6], 0.2%.
On to `CCCCCCCCCCCCN(CCCCCCCCCCCC)c1nc(NCCN(CC)CC)nc(SCCCCCC)n1` [S6^2N12 D7], for which the “Absolute DNA transfection efficiency” value was 0.3%.
With `CCCCCCCCCCCCN(CCCCCCCCCCCC)c1nc(NCCCN2CCOCC2)nc(SCCCCCC)n1` [S6^2N12 D8], the “Absolute DNA transfection efficiency” value came out at 0.0%.
As to `CCCCCCCCCCCCN(CCCCCCCCCCCC)c1nc(NCCCN2CCN(C)CC2)nc(SCCCCCC)n1` [S6^2N12 D9], the “Absolute DNA transfection efficiency” value stood at 0.4%.
To `CCCCCCCCCCCCN(CCCCCCCCCCCC)c1nc(NCC2CCN(C)CC2)nc(SCCCCCC)n1` [S6^2N12 D10] belongs 0.0%; to `CCCCCCCSc1nc(NCCCCCC)nc(NCCN(C)C)n1` [S7N6 D1], 17.6%.
Regarding `CCCCCCCSc1nc(NCCCCCC)nc(NCCN2CCOCC2)n1` [S7N6 D2], the “Absolute DNA transfection efficiency” value is given as 1.8%.
Turning to `CCCCCCCSc1nc(NCCCCCC)nc(NCCN2CCCC2)n1` [S7N6 D3], the “Absolute DNA transfection efficiency” value came out at 34.7%.
In the case of `CCCCCCCSc1nc(NCCCCCC)nc(NCCN2CCCCC2)n1` [S7N6 D4], the “Absolute DNA transfection efficiency” value worked out at 8.7%.
For the compound `CCCCCCCSc1nc(NCCCCCC)nc(NCCN2CCN(C)CC2)n1` [S7N6 D5], the “Absolute DNA transfection efficiency” value was 28.5%.
The result for `CCCCCCCSc1nc(NCCCCCC)nc(NCCCN(C)C)n1` [S7N6 D6] reads 27.2%; that for `CCCCCCCSc1nc(NCCCCCC)nc(NCCN(CC)CC)n1` [S7N6 D7], 11.2%.
For the compound `CCCCCCCSc1nc(NCCCCCC)nc(NCCCN2CCOCC2)n1` [S7N6 D8], the “Absolute DNA transfection efficiency” value worked out at 4.7%.
Regarding `CCCCCCCSc1nc(NCCCCCC)nc(NCCCN2CCN(C)CC2)n1` [S7N6 D9], the “Absolute DNA transfection efficiency” value is on record as 20.3%.
The result for `CCCCCCCSc1nc(NCCCCCC)nc(NCC2CCN(C)CC2)n1` [S7N6 D10] reads 6.3%.
The result for `CCCCCCCNc1nc(NCCN(C)C)nc(SCCCCCCC)n1` [S7N7 D1] reads 23.6%; that for `CCCCCCCNc1nc(NCCN2CCOCC2)nc(SCCCCCCC)n1` [S7N7 D2], 2.5%.
To `CCCCCCCNc1nc(NCCN2CCCC2)nc(SCCCCCCC)n1` [S7N7 D3] belongs 9.2%; to `CCCCCCCNc1nc(NCCN2CCCCC2)nc(SCCCCCCC)n1` [S7N7 D4], 11.3%.
Turning to `CCCCCCCNc1nc(NCCN2CCN(C)CC2)nc(SCCCCCCC)n1` [S7N7 D5], the “Absolute DNA transfection efficiency” value amounted to 33.5%.
The result for `CCCCCCCNc1nc(NCCCN(C)C)nc(SCCCCCCC)n1` [S7N7 D6] reads 33.5%.
For `CCCCCCCNc1nc(NCCN(CC)CC)nc(SCCCCCCC)n1` [S7N7 D7], the “Absolute DNA transfection efficiency” value stood at 11.4%.
The result for `CCCCCCCNc1nc(NCCCN2CCOCC2)nc(SCCCCCCC)n1` [S7N7 D8] reads 5.3%.
In the case of `CCCCCCCNc1nc(NCCCN2CCN(C)CC2)nc(SCCCCCCC)n1` [S7N7 D9], the “Absolute DNA transfection efficiency” value worked out at 10.9%.
Regarding `CCCCCCCNc1nc(NCC2CCN(C)CC2)nc(SCCCCCCC)n1` [S7N7 D10], the “Absolute DNA transfection efficiency” value is 8.6%.
The result for `CCCCCCCCNc1nc(NCCN(C)C)nc(SCCCCCCC)n1` [S7N8 D1] reads 15.6%.
To `CCCCCCCCNc1nc(NCCN2CCOCC2)nc(SCCCCCCC)n1` [S7N8 D2] belongs 2.7%; to `CCCCCCCCNc1nc(NCCN2CCCC2)nc(SCCCCCCC)n1` [S7N8 D3], 9.3%; to `CCCCCCCCNc1nc(NCCN2CCCCC2)nc(SCCCCCCC)n1` [S7N8 D4], 15.5%.
As for `CCCCCCCCNc1nc(NCCN2CCN(C)CC2)nc(SCCCCCCC)n1` [S7N8 D5], the “Absolute DNA transfection efficiency” value amounted to 22.1%.
On to `CCCCCCCCNc1nc(NCCCN(C)C)nc(SCCCCCCC)n1` [S7N8 D6], for which the “Absolute DNA transfection efficiency” value came out at 22.3%.
Turning to `CCCCCCCCNc1nc(NCCN(CC)CC)nc(SCCCCCCC)n1` [S7N8 D7], the “Absolute DNA transfection efficiency” value turned out to be 26.8%.
To `CCCCCCCCNc1nc(NCCCN2CCOCC2)nc(SCCCCCCC)n1` [S7N8 D8] belongs 2.7%; to `CCCCCCCCNc1nc(NCCCN2CCN(C)CC2)nc(SCCCCCCC)n1` [S7N8 D9], 14.9%.
On to `CCCCCCCCNc1nc(NCC2CCN(C)CC2)nc(SCCCCCCC)n1` [S7N8 D10], for which the “Absolute DNA transfection efficiency” value is 9.5%.
Take `CCCCCCCCCNc1nc(NCCN(C)C)nc(SCCCCCCC)n1` [S7N9 D1]: the “Absolute DNA transfection efficiency” value is given as 28.8%.
Regarding `CCCCCCCCCNc1nc(NCCN2CCOCC2)nc(SCCCCCCC)n1` [S7N9 D2], the “Absolute DNA transfection efficiency” value was 13.9%.
As for `CCCCCCCCCNc1nc(NCCN2CCCC2)nc(SCCCCCCC)n1` [S7N9 D3], the “Absolute DNA transfection efficiency” value was 12.3%.
`CCCCCCCCCNc1nc(NCCN2CCCCC2)nc(SCCCCCCC)n1` [S7N9 D4]: the “Absolute DNA transfection efficiency” value is given as 13.0%.
In the case of `CCCCCCCCCNc1nc(NCCN2CCN(C)CC2)nc(SCCCCCCC)n1` [S7N9 D5], the “Absolute DNA transfection efficiency” value is listed as 22.0%.
